Columns and labels:
Assay in all cases: selective drug sensitivity score (sDSS, relative to normal bone marrow) (sDSS (score)); higher = more potent and effective on the cell line relative to normal bone marrow cells
Settings in all cases: 72 h
SUP-B15 = tested on: SUP-B15
COG-LL-317 = tested on: COG-LL-317
NALM-16 = tested on: NALM-16
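Note: ALL cell lines in 384-well plates, five doses spanning 10,000-fold, each plate scaled between vehicle and 100 µmol/L benzalkonium chloride controls, sDSS an adapted area-under-curve metric.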

Compound | selective drug sensitivity score (SUP-B15) | selective drug sensitivity score (COG-LL-317) | selective drug sensitivity score (NALM-16)
Cc1c(F)cc(C(=O)NC2CC2)cc1-c1ccc(C(=O)NCC(C)(C)C)cn1 [Losmapimod] (top concentration 10000 nM) | 0.42 | -0.18 | -0.18
CNC(=O)c1cccc2cc(Oc3ccnc4cc(OCC5(N)CC5)c(OC)cc34)ccc12 [Lucitanib] (top concentration 10000 nM) | 3.48 | 2.78 | -0.62
O=C1c2c(O)ccc(O)c2C(=O)c2c(NCCNCCO)ccc(NCCNCCO)c21 [Mitoxantrone] (top concentration 1000 nM) | 15.7 | 16.2 | -5.06
CC1(C)CNc2cc(NC(=O)c3cccnc3NCc3ccncc3)ccc21 [Motesanib] (top concentration 10000 nM) | -0.22 | -0.22 | -0.22
CCCN(CCC)C(=O)C1=Cc2ccc(-c3ccc(C(=O)N4CCCC4)cc3)cc2N=C(N)C1 [Motolimod] (top concentration 10000 nM) | -3.58 | -4.08 | -4.48
Cc1cc(-c2ncc(CC(=O)Nc3ccc(-c4cnccn4)cn3)cc2C)ccn1 [NVP-LGK974] (top concentration 10000 nM) | 3.9 | -1.2 | 0.7
CC1(C)NC(=O)N(c2ccc([N+](=O)[O-])c(C(F)(F)F)c2)C1=O [Nilutamide] (top concentration 10000 nM) | -0.48 | -0.48 | -0.48
CNC(=O)c1ccc2cc([C@@]3(O)CCn4cncc43)ccc2c1 [Orteronel] (top concentration 10000 nM) | 2.1 | 0 | 0
C=CCc1cccc(/C=N/NC(=O)CN2CCN(Cc3ccccc3)CC2)c1O [PAC-1] (top concentration 10000 nM) | 2.08 | 12.7 | 3.58
O=C(Nc1cccnc1)N1CCC(Cc2cccc(Oc3ccc(C(F)(F)F)cn3)c2)CC1 [PF-3845] (top concentration 10000 nM) | 3.16 | 0.26 | 0.36
COc1cc(Br)c(Nc2nc(-c3c(C)nc4ncccn34)cs2)c(Br)c1 [PTC-209] (top concentration 10000 nM) | -0.18 | 0.42 | -2.38
C=CC(=O)N1CCC(Oc2cc3c(Nc4ccc(Cl)c(Cl)c4F)ncnc3cc2OC)CC1 [Poziotinib] (top concentration 1000 nM) | 2.98 | 2.68 | -0.22
CC[C@H](C)C(=O)O[C@H]1C[C@H](O)C=C2C=C[C@H](C)[C@H](CC[C@@H](O)C[C@@H](O)CC(=O)O)[C@H]21 [Pravastatin] (top concentration 10000 nM) | 0.04 | 0.94 | -0.66
COC(=O)c1ccc([C@H]2c3[nH]c4ccccc4c3C[C@H](C(=O)OC)N2C(=O)CCl)cc1 [RSL3] (top concentration 10000 nM) | 0 | 0.3 | 0
Cc1cnc(NC(=O)Nc2cc(Br)c(C)cc2OC[C@@H]2CNCCO2)cn1 [Rabusertib] (top concentration 1000 nM) | -0.74 | 7.36 | -0.74
CCOCc1nc2c(N)nc3ccccc3c2n1CC(C)(C)O [Resiquimod] (top concentration 10000 nM) | -1.22 | -4.02 | -4.92
C[C@H]1CNCCCN1S(=O)(=O)c1cccc2cncc(F)c12 [Ripasudil] (top concentration 10000 nM) | 4.88 | -0.22 | -0.22
Cc1nc(C(=O)NCC(=O)O)c(O)c2ccc(Oc3ccccc3)cc12 [Roxadustat] (top concentration 10000 nM) | -1.12 | -1.12 | -1.12
CN(C)C[C@@H]1CCn2cc(c3ccccc32)C2=C(C(=O)NC2=O)c2cn(c3ccccc23)CCO1 [Ruboxistaurin] (top concentration 10000 nM) | 0.06 | 1.16 | -3.74

Compound | selective drug sensitivity score (SUP-B15) | selective drug sensitivity score (COG-LL-317) | selective drug sensitivity score (NALM-16)
CN(CC(=O)N(Cc1ccc(C2CCCCC2)cc1)c1ccc(C(=O)O)cc1)S(=O)(=O)c1c(F)c(F)c(F)c(F)c1F [SH-4-54] (top concentration 25000 nM) | -5.94 | -5.44 | -5.04
Cc1cc2c(C(=O)NC[C@H](C)c3ccccc3)c(O)c(O)cc2c(O)c1-c1c(C)cc2c(C(=O)NC[C@H](C)c3ccccc3)c(O)c(O)cc2c1O [Sabutoclax] (top concentration 25000 nM) | 16 | 15.6 | 6.78
CC1=C2C[C@H]3[C@@H](CC[C@@H]4C[C@H](NS(C)(=O)=O)CC[C@@]43C)[C@@H]2CC[C@@]2(C1)O[C@@H]1C[C@H](C)CN[C@H]1[C@H]2C [Saridegib] (top concentration 10000 nM) | 0.64 | -1.16 | 0.04
Cc1cc(F)c(C(=O)Nc2cccc(-c3nncn3C(C)C)n2)cc1-n1cnc(C2CC2)c1 [Selonsertib] (top concentration 1000 nM) | 0 | 0 | 0
Nc1nc2cc(-c3ccc4ncc(C(=O)N5CCOCC5)n4c3)ccc2o1 [Serabelisib] (top concentration 10000 nM) | 1.26 | -1.54 | -1.44
CCC(C)(C)C(=O)O[C@H]1C[C@@H](C)C=C2C=C[C@H](C)[C@H](CC[C@@H]3C[C@@H](O)CC(=O)O3)[C@H]21 [Simvastatin] (top concentration 10000 nM) | -0.72 | 6.68 | -0.72
C=CCN(/C=C1/C(=O)O[C@H](COC)[C@@]2(C)C1=C(O)C(=O)C1=C2[C@H](OC(C)=O)C[C@]2(C)C(=O)CC[C@@H]12)CC=C [Sonolisib] (top concentration 10000 nM) | -0.76 | -0.06 | -0.56
CC(C)n1cnc2c(NCCc3ccc(O)cc3)nc(-c3csc4ccccc34)nc21 [StemRegenin_1] (top concentration 10000 nM) | -0.2 | -0.3 | -1.8
CC(C)(O)CC(=O)NCCn1ccc2ncnc(Nc3ccc(Oc4cccc(C(F)(F)F)c4)c(Cl)c3)c21 [TAK-285] (top concentration 2500 nM) | 0 | 0 | 0
Nc1nc(N)c2nc(-c3cccc(O)c3)c(-c3cccc(O)c3)nc2n1 [TG100-115] (top concentration 10000 nM) | -0.3 | -0.1 | 0.5
CC/C(=C(\c1ccccc1)c1ccc(OCCN(C)C)cc1)c1ccccc1 [Tamoxifen] (top concentration 10000 nM) | 3.02 | 1.42 | -3.18
COc1cc2c(N3CCN(C(=O)Nc4ccc(OC(C)C)cc4)CC3)ncnc2cc1OCCCN1CCCCC1 [Tandutinib] (top concentration 1000 nM) | 0.5 | 0.7 | 0.8
Cn1nnc2c(C(N)=O)ncn2c1=O [Temozolomide] (top concentration 100000 nM) | -0.04 | -0.04 | -0.04
CN1CCC(COc2cnc(-c3cccc(Cn4nc(-c5cccc(C#N)c5)ccc4=O)c3)nc2)CC1 [Tepotinib] (top concentration 1000 nM) | -0.08 | 0.52 | -0.08
NC(=S)N/N=C/c1ncccc1N [Triapine] (top concentration 10000 nM) | 2.48 | 0.88 | 2.68
NC(=O)c1cccc(-c2cccc(OC(=O)NC3CCCCC3)c2)c1 [URB597] (top concentration 1000 nM) | 0.94 | -0.46 | -0.46
COc1cc2/c(=N/c3ccc(Br)cc3F)nc[nH]c2cc1OCC1CCN(C)CC1 [Vandetanib] (top concentration 1000 nM) | 1.08 | -0.22 | -0.22
COc1cccc(-c2ccc(NC(=O)C3=C(C(=O)O)CCC3)c(F)c2)c1 [Vidofludimus] (top concentration 10000 nM) | 6 | 4.3 | 3.5
CC[C@]12C=CCN3CC[C@@]4(c5cc([C@@]6(C(=O)OC)C[C@@H]7C[C@@H](C(C)(F)F)CN(Cc8c6[nH]c6ccccc86)C7)c(OC)cc5N(C)[C@H]4[C@@](O)(C(=O)OC)[C@@H]1OC(C)=O)[C@@H]32 [Vinflunine] (top concentration 1000 nM) | 3.48 | 3.88 | 4.08

Reference: the supplement of paper PMC8967900
